In patent US20150190369A1, “QUERCETIN-3-GLUCOSIDE AND USES THEREOF” (priority 2012, published 2015):

Experiments:
[1] = tested on: LDLR mRNA; assay: Quantitative RT-PCR for LDLR mRNA in Huh7 cells; assay type: cell-based, human; settings: Huh7, 24 h, 10% LPDS, 0 to 10 μM Q3G; maximum at 2 μM, relative to no Q3G
Method: At passage, Huh7 cells were routinely seeded at sub-confluence (˜10^6 cells/10-cm dish) in Dulbecco's modified Eagle's medium (DMEM) containing 10% fetal bovine serum (FBS) or LPDS (for experiments) and 50 μg/ml gentamycin. They were incubated overnight at 37° C., in a humidified 5% CO2-95% air atmosphere. Cells were treated or not with Q3G at defined concentrations and for defined lengths of time. Media were collected and centrifuged at 200 g for 5 min to sediment suspended cells; supernatants were collected and supplemented with 0.33 volumes of a 3×-concentrated PIC. Cell monolayers were rinsed with ice-cold phosphate-buffered saline (PBS); they were overlaid with […] the RIPA lysis buffer (50 mM Tris-HCl, pH 8, 150 mM NaCl, 1% NP-40, 0.5% Na-deoxycholate and 0.1% SDS) supplemented with 1× PIC. After 20 min in an ice bath, the lysates were centrifuged at 14,000 g and 4° C. for 20 min, and supernatants were collected. Conditioned media and lysates were stored at −20° C. until analysis. […]
Standard curves were established using varying amounts of purified and quantified cDNA amplicons of each mRNA. […]
Huh7 cells, hepatocyte derived cellular carcinoma cells, were incubated for 24 h in medium containing 10% lipoprotein-depleted serum (LPDS) and 0 to 10 μM Q3G. The level of LDLR mRNA was measured by quantitative real-time RT-PCR; that of the LDLR protein by semi-quantitative immunoblotting. […]

[2] = tested on: PCSK9; assay: Semi-quantitative immunoblotting for cellular PCSK9 in Huh7 cells; assay type: cell-based, human
Method: At passage, Huh7 cells were routinely seeded at sub-confluence (˜10^6 cells/10-cm dish) in Dulbecco's modified Eagle's medium (DMEM) containing 10% fetal bovine serum (FBS) or LPDS (for experiments) and 50 μg/ml gentamycin. They were incubated overnight at 37° C., in a humidified 5% CO2-95% air atmosphere. Cells were treated or not with Q3G at defined concentrations and for defined lengths of time. Media were collected and centrifuged at 200 g for 5 min to sediment suspended cells; supernatants were collected and supplemented with 0.33 volumes of a 3×-concentrated PIC. Cell monolayers were rinsed with ice-cold phosphate-buffered saline (PBS); they were overlaid with […] the RIPA lysis buffer (50 mM Tris-HCl, pH 8, 150 mM NaCl, 1% NP-40, 0.5% Na-deoxycholate and 0.1% SDS) supplemented with 1× PIC. After 20 min in an ice bath, the lysates were centrifuged at 14,000 g and 4° C. for 20 min, and supernatants were collected. Conditioned media and lysates were stored at −20° C. until analysis.
Cell lysates were fractionated by SDS-PAGE and electrophoretically transferred onto a polyvinylidene fluoride membrane. The membrane was incubated with a goat antihuman LDLR, rabbit anti-PCSK9, or rabbit anti-SREBP-2 polyclonal antibody at 1:1000, 1:1500, and 1:200 dilutions, respectively, and then with a HRP-conjugated heterospecific secondary antibody against the primary Igs at a 1:2000 dilution. It was probed for HRP reaction using the Western Lightning Chemiluminescence Reagent Plus a chemiluminescence-based revelation kit. The signal was captured on X-ray film and immunoreactive bands analyzed by densitometry on a Syngene's ChemiGenius^2XE Bio Imaging System (Cambridge, Mass.) within the dynamic range of the instrument. The membrane was stripped and reprobed with the anti-β-actin monoclonal primary antibody at 1:20,000 dilution and HRP-conjugated rabbit anti-mouse IgG secondary antibody at a 1:5000 dilution. The densitometric values of β-actin bands were using for normalization of experimental samples. […]

[3] = tested on: LDLR mRNA; assay: qRT-PCR for LDLR mRNA in MIN6 β-cells; assay type: cell-based, mouse; set-up: increase in LDLR mRNA: dose or concentration left out as unconfirmed; settings: MIN6, 24 h
Method: Mouse insulinoma MIN6 cells were cultured in a 5% CO2-95% air atmosphere at 37° C. in DMEM medium containing 10% heat-inactivated fetal bovine serum, 1 mM Na-pyruvate, 2 mM L-glutamine, 25 mM D-glucose, and 28 μM β-mercaptoethanol. Q3G at a specific final concentration was supplemented to the culture medium and incubation was conducted for a selected length of time. Media were collected, spun at 600 g to sediment suspended cells, supplemented with 0.5 volumes of 3×RIPA-PIC (1×: 50 mM Tris-HCl, pH 8, 150 mM NaCl, 1% NP-40, 0.5% Na-deoxycholate and 0.1% SDS and PIC). Cells were lysed in 1×RIPA-PIC for immuno-blotting, or in RNA extraction buffer for qRT-PCR.
For the mouse studies, the levels of specific mRNAs were quantified in a PCR-based fluorogenic assay using the Taqman technology (Holland et al., 1991). Briefly, total RNA was extracted using the RNeasy extraction kit and reverse-transcribed into cDNA using random hexameric primers and the Superscript II RNase H-Reverse Transcriptase. The cDNA was used as a template to produce PCR amplicons using FastStart TaqMan ProbeMaster-Rox master mix, primer pairs and the appropriate fluorescent probes) in the Stratagene Mx3005P thermocycler. Standard curves were established using varying amounts of pre-quantified amplicons of each transcript. The level of mRNA for the TATA-box binding protein (TBP) was used for normalization.
MIN6 β-cells were incubated for 24 h in the presence of different concentrations of Q3G. Total RNA was extracted and analyzed by qRT-PCR for the levels of mRNA for PCSK9, LDLR, ABCA1 and ABCG1.

Structure (SMILES): O=c1c(O[C@@H]2O[C@H](CO)[C@@H](O)[C@H](O)[C@H]2O)c(-c2ccc(O)c(O)c2)oc2cc(O)cc(O)c12 [Q3G, quercetin-3-O-β-D-glucoside]
- increase of intracellular content of LDLR mRNA (maximum) [1]: 2 ×
- lag before PCSK9 accumulation in the cells ([2]; Huh7, 2 μM Q3G, time course): 3 h
- amount of cellular PCSK9 ([2]; Huh7, 24 h, co-treatment 5 μM Q3G with simvastatin 0.2 and 1 μM): further increased
- increase of PCSK9 protein in the cells ([2]; Huh7, 24 h, highest Q3G concentration tested (0 to 10 μM)): 1.9 ×
- effect on LDL-receptor mRNA levels ([3]; Q3G 8 mM and above): increased
- effect on LDLR mRNA levels ([3]; Q3G up to 4 mM): does not affect
- increase in LDLR mRNA ([3]; maximum Q3G concentration used): 1.8 fold
